In patent US20250084095A1, “Aminopyrimidine Derivatives as Cyclin-Dependent Kinase Inhibitors” (Accutar Biotechnology Inc., priority 2023, published 2025):

Key:
[1] = system: Phospho-Rb (Ser807/811) in MCF7 cells; assay: Phospho-Rb expression inhibition in MCF7 cells quantified by in cell Western; type: cell-based, human; conditions: Homo sapiens, MCF7, 24 h, 24 hours, in cell Western, read-out: MCF7 pRb IC50
Method in brief: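 MCF7 cells were seeded at 20,000/well, grown overnight, then treated 24 h at 37 °C with compound dilutions (0.1% DMSO from 1000× stocks). Fixed cells were co-stained for phospho-Rb Ser807/811 and total Rb. Near-infrared dual-channel in-cell Western imaging was the read-out.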

22RV1 cells = assay: Cell growth inhibition of 22RV1 cells (CellTiter-Glo); type: cell-based; conditions: Homo sapiens, 22Rv1, 120 h, 5 days, CellTiter-Glo, read-out: 22RV1 Cell Growh GI50
Method in brief: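 22RV1 cells were plated in RPMI1640 with FBS (20% in one version, 10% in the other) and dosed next day at various concentrations from DMSO stocks. After 5 days at 37 °C, viability was measured by CellTiter-Glo luminescence.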

SMILES | IC50 [1] [nM] | GI50 (22RV1 cells) [nM]
Cc1c(C(F)F)c(=O)c2ccc(-c3nc(N[C@@H]4C[C@H]5CO[C@H](O5)[C@H]4O)ncc3F)cc2n1C(C)C [Compound 192, 3-(difluoromethyl)-7-(5-fluoro-2-(((1S,3R,4S,5R)-4-hydroxy-6,8-dioxabicyclo[3.2.1]octan-3-yl)amino)pyrimidin-4-yl)-1-isopropyl-2-methylquinolin-4(1H)-one] | 150 to 1000 | 120 to 450
Cc1c(CN)n(C(C)C)c2cc(-c3nc(N[C@@H]4C[C@H]5CO[C@H](O5)[C@H]4O)ncc3F)ccc2c1=O [Compound 193, 2-(aminomethyl)-7-(5-fluoro-2-(((1S,3R,4S,5R)-4-hydroxy-6,8-dioxabicyclo[3.2.1]octan-3-yl)amino)pyrimidin-4-yl)-1-isopropyl-3-methylquinolin-4(1H)-one] | 150 to 1000 | 120 to 450
Cc1c(CN2CC(O)C2)n(C(C)C)c2cc(-c3nc(N[C@@H]4C[C@H]5CO[C@H](O5)[C@H]4O)ncc3F)ccc2c1=O [Compound 198, 7-(5-fluoro-2-(((1S,3R,4S,5R)-4-hydroxy-6,8-dioxabicyclo[3.2.1]octan-3-yl)amino)pyrimidin-4-yl)-2-((3-hydroxyazetidin-1-yl)methyl)-1-isopropyl-3-methylquinolin-4(1H)-one] | 150 to 1000 | 450 to 3000
CC(C)n1c(CN2[C@@H](C)COC[C@@H]2C)c(F)c(=O)c2ccc(-c3nc(N[C@@H]4C[C@H]5CO[C@H](O5)[C@H]4O)ncc3F)cc21 [Compound 200, 2-(((3S,5S)-3,5-dimethylmorpholino)methyl)-3-fluoro-7-(5-fluoro-2-(((1S,3R,4S,5R)-4-hydroxy-6,8-dioxabicyclo[3.2.1]octan-3-yl)amino)pyrimidin-4-yl)-1-isopropylquinolin-4(1H)-one] | 40 to 150 | 120 to 450
Cc1c(CN2CC[C@H](O)C2)n(C(C)C)c2cc(-c3nc(N[C@@H]4C[C@H]5CO[C@H](O5)[C@H]4O)ncc3F)ccc2c1=O [Compound 207, 7-(5-fluoro-2-(((1S,3R,4S,5R)-4-hydroxy-6,8-dioxabicyclo[3.2.1]octan-3-yl)amino)pyrimidin-4-yl)-2-(((S)-3-hydroxypyrrolidin-1-yl)methyl)-1-isopropyl-3-methylquinolin-4(1H)-one] | 40 to 150 | ≤ 120
Cc1c(CN2CCC(F)(F)C2)n(C(C)C)c2cc(-c3nc(N[C@@H]4C[C@H]5CO[C@H](O5)[C@H]4O)ncc3F)ccc2c1=O [Compound 208, 2-((3,3-difluoropyrrolidin-1-yl)methyl)-7-(5-fluoro-2-(((1S,3R,4S,5R)-4-hydroxy-6,8-dioxabicyclo[3.2.1]octan-3-yl)amino)pyrimidin-4-yl)-1-isopropyl-3-methylquinolin-4(1H)-one] | ≤ 40 | ≤ 120
CC(C)n1c(CN2[C@@H](C)COC[C@@H]2C)cc(=O)c2ccc(-c3nc(N[C@@H]4C[C@H]5CO[C@H](O5)[C@H]4O)ncc3F)cc21 [Compound 209, 2-(((3S,5S)-3,5-dimethylmorpholino)methyl)-7-(5-fluoro-2-(((1S,3R,4S,5R)-4-hydroxy-6,8-dioxabicyclo[3.2.1]octan-3-yl)amino)pyrimidin-4-yl)-1-isopropylquinolin-4(1H)-one] | 40 to 150 | 120 to 450
CC(C)n1c(CN2CC[C@@H](F)C2)cc(=O)c2ccc(-c3nc(N[C@@H]4C[C@H]5CO[C@H](O5)[C@H]4O)ncc3F)cc21 [Compound 210, 7-(5-fluoro-2-(((1S,3R,4S,5R)-4-hydroxy-6,8-dioxabicyclo[3.2.1]octan-3-yl)amino)pyrimidin-4-yl)-2-(((R)-3-fluoropyrrolidin-1-yl)methyl)-1-isopropylquinolin-4(1H)-one] | 150 to 1000 | 450 to 3000
Cc1c(CN2CCOC2=O)n(C(C)C)c2cc(-c3nc(N[C@@H]4C[C@H]5CO[C@H](O5)[C@H]4O)ncc3F)ccc2c1=O [Compound 211, 3-((7-(5-fluoro-2-(((1S,3R,4S,5R)-4-hydroxy-6,8-dioxabicyclo[3.2.1]octan-3-yl)amino)pyrimidin-4-yl)-1-isopropyl-3-methyl-4-oxo-1,4-dihydroquinolin-2-yl)methyl)oxazolidin-2-one] | > 1000 | > 3000
Cc1c(CN2C[C@H](C)OC2=O)n(C(C)C)c2cc(-c3nc(N[C@@H]4C[C@H]5CO[C@H](O5)[C@H]4O)ncc3F)ccc2c1=O [Compound 212, (S)-3-((7-(5-fluoro-2-(((1S,3R,4S,5R)-4-hydroxy-6,8-dioxabicyclo[3.2.1]octan-3-yl)amino)pyrimidin-4-yl)-1-isopropyl-3-methyl-4-oxo-1,4-dihydroquinolin-2-yl)methyl)-5-methyloxazolidin-2-one] | 150 to 1000 | > 3000
Cc1c(C(=O)N2[C@@H](C)COC[C@@H]2C)n(C(C)C)c2cc(-c3nc(N[C@@H]4C[C@H]5CO[C@H](O5)[C@H]4O)ncc3Cl)ccc2c1=O [Compound 213, 7-(5-chloro-2-(((1S,3R,4S,5R)-4-hydroxy-6,8-dioxabicyclo[3.2.1]octan-3-yl)amino)pyrimidin-4-yl)-2-((3S,5S)-3,5-dimethylmorpholine-4-carbonyl)-1-isopropyl-3-methylquinolin-4(1H)-one] | > 1000 | > 3000
Cc1c(C(=O)N2CCOCC2)n(C(C)C)c2cc(-c3nc(N[C@@H]4C[C@H]5CO[C@H](O5)[C@H]4O)ncc3Cl)ccc2c1=O [Compound 214, 7-(5-chloro-2-(((1S,3R,4S,5R)-4-hydroxy-6,8-dioxabicyclo[3.2.1]octan-3-yl)amino)pyrimidin-4-yl)-1-isopropyl-3-methyl-2-(morpholine-4-carbonyl)quinolin-4(1H)-one] | > 1000 | > 3000
Cc1c(-c2nc(N[C@@H]3C[C@H]4CO[C@H](O4)[C@H]3O)ncc2F)sc2cc(CN3[C@@H](C)COC[C@@H]3C)n(C)c(=O)c12 [Compound 215, 6-(((3S,5S)-3,5-dimethylmorpholino)methyl)-2-(5-fluoro-2-(((1S,3R,4S,5R)-4-hydroxy-6,8-dioxabicyclo[3.2.1]octan-3-yl)amino)pyrimidin-4-yl)-3,5-dimethylthieno[3,2-c]pyridin-4(5H)-one] | 40 to 150 | 450 to 3000
CC(C)n1c(C(C)(C)N2CCOCC2)nc2c(F)cc(-c3nc(N[C@@H]4C[C@H]5CO[C@H](O5)[C@H]4O)ncc3Cl)cc21 [Compound 219, (1S,3R,4S,5R)-3-((5-chloro-4-(4-fluoro-1-isopropyl-2-(2-morpholinopropan-2-yl)-1H-benzo[d]imidazol-6-yl)pyrimidin-2-yl)amino)-6,8-dioxabicyclo[3.2.1]octan-4-ol] | 40 to 150 | 120 to 450
CC(C)n1c(C(C)(C)N2CC(F)(F)C2)nc2c(F)cc(-c3nc(N[C@@H]4C[C@H]5CO[C@H](O5)[C@H]4O)ncc3Cl)cc21 [Compound 222, (1S,3R,4S,5R)-3-((5-chloro-4-(2-(2-(3,3-difluoroazetidin-1-yl)propan-2-yl)-4-fluoro-1-isopropyl-1H-benzo[d]imidazol-6-yl)pyrimidin-2-yl)amino)-6,8-dioxabicyclo[3.2.1]octan-4-ol] | 150 to 1000 | 450 to 3000
Cc1c(-c2nc(N[C@@H]3C[C@H]4CO[C@H](O4)[C@H]3O)ncc2Cl)sc2c(C(C)C)cn(C(F)F)c(=O)c12 [Compound 231, 2-(5-chloro-2-(((1S,3R,4S,5R)-4-hydroxy-6,8-dioxabicyclo[3.2.1]octan-3-yl)amino)pyrimidin-4-yl)-5-(difluoromethyl)-7-isopropyl-3-methylthieno[3,2-c]pyridin-4(5H)-one] | 40 to 150 | 450 to 3000
Cc1c(-c2nc(N[C@@H]3C[C@H]4CO[C@H](O4)[C@H]3O)ncc2F)sc2cc(CN3CCOCC3)n(C)c(=O)c12 [Compound 232, 2-(5-fluoro-2-(((1S,3R,4S,5R)-4-hydroxy-6,8-dioxabicyclo[3.2.1]octan-3-yl)amino)pyrimidin-4-yl)-3,5-dimethyl-6-(morpholinomethyl)thieno[3,2-c]pyridin-4(5H)-one] | 150 to 1000 | 450 to 3000
CC(C)c1cn(C)c(=O)c2ccc(-c3nc(N[C@@H]4C[C@H]5CO[C@H](O5)[C@H]4O)ncc3Cl)cc12 [Compound 236, 6-(5-chloro-2-(((1S,3R,4S,5R)-4-hydroxy-6,8-dioxabicyclo[3.2.1]octan-3-yl)amino)pyrimidin-4-yl)-4-isopropyl-2-methylisoquinolin-1(2H)-one] | 150 to 1000 | 450 to 3000
CC(C)c1cc2cc(-c3nc(N[C@@H]4C[C@H]5CO[C@H](O5)[C@H]4O)ncc3Cl)ccc2c(=O)n1C [Compound 237, 6-(5-chloro-2-(((1S,3R,4S,5R)-4-hydroxy-6,8-dioxabicyclo[3.2.1]octan-3-yl)amino)pyrimidin-4-yl)-3-isopropyl-2-methylisoquinolin-1(2H)-one] | 40 to 150 | 450 to 3000
CC(C)n1c(C2CC(F)C2)nc2c(F)cc(-c3nc(N[C@@H]4C[C@H]5CO[C@H](O5)[C@H]4O)ncc3Cl)cc21 (stereo partly drawn) [Compound 242, (1S,3R,4S,5R)-3-((5-chloro-4-(4-fluoro-2-((1s,3S)-3-fluorocyclobutyl)-1-isopropyl-1H-benzo[d]imidazol-6-yl)pyrimidin-2-yl)amino)-6,8-dioxabicyclo[3.2.1]octan-4-ol] | ≤ 40 | 120 to 450
CC(C)n1c(C2CC(O)C2)nc2c(F)cc(-c3nc(N[C@@H]4C[C@H]5CO[C@H](O5)[C@H]4O)ncc3Cl)cc21 (stereo partly drawn) [Compound 244, (1S,3R,4S,5R)-3-((5-chloro-4-(4-fluoro-2-((1s,3S)-3-hydroxycyclobutyl)-1-isopropyl-1H-benzo[d]imidazol-6-yl)pyrimidin-2-yl)amino)-6,8-dioxabicyclo[3.2.1]octan-4-ol] | 40 to 150 | 120 to 450
